Experimental data taken from patent US10294234B2, “HIV inhibitor compounds” (priority 2017, dated 2019).

How the values were obtained:
[1] = tested on: HIV-1 (IIIB) in MT-4 cells; assay: Protein adjusted EC95 (high resolution antiviral assay with equilibrium dialysis plasma protein binding); type: cell-based; details: EC95 adjusted for plasma protein binding (10% plasma vs cell culture media)
Experimental: (§1) MT-4 HIV High Resolution Antiviral Assay
(§2) Assay protocol is identical to that described for the MT-4 antiviral assay with the following changes: Each drug is run in 2 series of quadruplicates with different starting concentrations for each series and 19 1.5 fold dilutions performed across the plate. […] Data is analyzed and Hill coefficients determined in Graph Pad Prism (San Diego, Calif.). EC95s were determined by the formula EC95=(19)^I/hill coefficient×EC50. HD values were determined for certain compounds and reported in Table 5 below as an illustrative example.
Equilibrium Dialysis Assay
Pooled plasma (from at least 3 males and 3 females) was from Bioreclamation IVT. Sodium EDTA was used as the anticoagulant. 10% plasma was diluted in 0.133M phosphate buffer consisted of 1.5% (w/v) Sodium EDTA.
RPMI cell culture media consisted 10% FBS was provided by biology department, Gilead Sciences, Inc.
Plasma Protein Binding Assay:
Studies were conducted in duplicate or triplicate using a Dianorm Equilibrium Dialyser (Harvard Apparatus, Holliston Mass.) with each cell consisting of a semipermeable membrane (2.4 cm working diameter) separating two 1 mL PTFE half-cells (Weder HG, Schildknecht J, Kesselring P. A new equilibrium dialyzing system. American Laboratory. 1971; 10: 15-21). Prior to the study, the dialysis membrane was soaked for approximately one hour in 0.133 M phosphate buffer, pH 7.4. 10% plasma and cell culture media spiked with 1 μM compound (1 mL) were placed into opposite sides of the assembled dialysis cells and the dialysis cells were then rotated slowly in a 37° C. water bath. After the equilibration period, matrix-containing samples from both sides were drained into pre-weighed polypropylene tubes. Post-dialysis 10% plasma samples were transferred into centrifuge tubes containing 1 mL of blank cell culture media. Post-dialysis cell culture media samples were transferred into centrifuge tubes containing 1 mL of blank 10% plasma. All samples weights were measured and recorded for calculations of volume shift and recovery. […]

recombinant HIV protease = recombinant HIV protease (Human immunodeficiency virus type 1 group M subtype B, UniProt P04585); assay: biochemical
Experimental: Inhibitor potency was measured using an enzymatic assay with a fluorogenic readout. […] After a 20-minute pre-incubation, the enzymatic reaction was initiated by the addition of the fluorogenic substrate (2-aminobenzoyl)Thr-Ile-Nle-(p-nitro)Phe-Gln-Arg (Bachem) to a final concentration of 40 μM. The total volume of the assay solution was 100 µL. The reaction was measured over 20 minutes on a Tecan Infinite M1000 plate reader using an excitation wavelength of 320 nm and a detection wavelength of 420 nm. The slopes of the progress curves were the measure of reaction rates.

in vivo = assay: in vivo
Experimental: Pharmacokinetic Profiling Dog PK
Each dosing group consisted of three non-naïve male beagle dogs. At dosing, the animals weighed between 9 to 12 kg. The animals were fasted overnight prior to dose administration and up to four hours after dosing. The test article was administered by intravenous infusion over 30-minutes. The rate of infusion was adjusted according to the body weight of each animal to deliver a dose of 0.5 or 1.0 mg/kg. For the oral dosing group, the test article was administered by oral gavage at a dose volume of 2 mL/kg.
Serial venous blood samples (approximately 1.0 mL each) were collected at predose and 0.25, 0.48, 0.58, 0.75, 1.0, 1.5, 2, 4, 8, 12 and 24 hours post dose from each animal for the IV dosing group; blood samples were collected at predose, 0.25, 0.50, 1, 2 4, 6, 8,12 and 24 hours post dose for the oral dosing group. The blood samples were collected into Vacutainer™ tubes containing EDTA-K2 as the anti-coagulant and were immediately placed on wet ice pending centrifugation for plasma. An LC/MS/MS method was used to measure the concentration of test compound in plasma. Non-compartmental pharmacokinetic analysis was performed on the plasma concentration-time data. VSS=apparent volume of distribution, t1/2=half life, F=oral bioavailability.

[2] = 3H Human Predicted Clearance Assay (tritiated analogs); type: in vitro ADME; design: unit not given here; details: tritiated analogs, human liver microsomes
Experimental: 3H Human Predicted Clearance Assay:
For certain compounds, tritiated analogs (H^3) were prepared to further determined their human predicted clearance with increased resolution. Those studies were performed as described above using the tritiated analogs. Data from those compounds is found in Table 2 below and reported in FIG. 1 (note ATV and DRV were not tritiated).

[3] = tested on: HIV-1 (IIIB) in MT-4 cells; assay: MT-4 HIV assay; type: cell-based; details: Human immunodeficiency virus 1, MT4, 120 h; HIV-1 (IIIB), MT-4 cells, 5 days, Cell Titer Glo; read-out: EC50
How it was run: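 Antiviral activity was read by Cell Titer Glo after a 5-day, 37 °C culture of MT-4 cells pre-infected with a 1:250 dilution of HIV-1 (IIIB). Compounds were tested as threefold dilution series in complete RPMI. Controls were no drug, mock infection and 5 uM AZT.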

[4] = tested on: HIV-1 (IIIB) in MT-4 cells; assay: MT-4 HIV High Resolution Antiviral Assay; type: cell-based
Experimental: Compounds were tested in a high-throughput 384-well assay format for their ability to inhibit the replication of HIV-1 (IIIB) in MT-4 cells. Compounds were serially diluted (1:3) in DMSO on 384-well polypropylene plates and further diluted 200-fold into complete RPMI media (10% FBS, 1% P/S) using the Biotek Micro Flow and Agilent ECHO acoustic dispenser. Each plate contained up to 8 test compounds, with negative (No Drug Control) and 5 uM AZT positive controls. MT-4 cells were pre-infected with 10 uL of either RPMI (mock-infected) or a fresh 1:250 dilution of an HIV-1 (IIIB) concentrated virus stock. Infected and uninfected MT-4 cells were further diluted in complete RPMI media and added to each plate using a Micro Flow dispenser. After 5 days incubation in a humidified and temperature controlled incubator (37° C.), Cell Titer Glo (Promega) was added to the assay plates to quantify the amount of luciferase. EC50 and CC50 values were defined as the compound concentration that causes a 50% decrease in luminescence signal, and were calculated using a sigmoidal dose-response model to generate curve fits.
as §1, §2

[5] = male beagle dogs, IV infusion over 30 minutes, 0.5 or 1.0 mg/kg

COC(=O)N[C@H](C(=O)N[C@@H](Cc1ccc(C#Cc2ccc(N3CC4CCC(C3)N4C3COC3)nc2)cc1)[C@@H](O)CN(Cc1c(F)cc(-c2ccn(C(F)F)n2)cc1F)NC(=O)[C@@H](NC(=O)OC)C(C)(C)C(F)(F)F)C(C)(C)C(F)(F)F [Example 58, Methyl ((5S,8S,9S,14S)-11-(4-(1-(difluoromethyl)-1H-pyrazol-3-yl)-2,6-difluorobenzyl)-16,16,16-trifluoro-9-hydroxy-15,15-dimethyl-8-(4-((6-(8-(oxetan-3-yl)-3,8-diazabicyclo[3.2.1]octan-3-yl)pyridin-3-yl)ethynyl)benzyl)-3,6,13-trioxo-5-(1,1,1-trifluoro-2-methylpropan-2-yl)-2-oxa-4,7,11,12-tetraazahexadecan-14-yl)carbamate]
Protein Adjusted EC95 [1]: 353 nM
Ki (recombinant HIV protease): 0.06 nM
DOG IV CL (in vivo; [5]): 7.83 mL/min/kg
DOG IV T1/2 (in vivo; [5]): 13.8 h
DOG PO F (in vivo; male beagle dogs, oral gavage, PO dose 2 mg/kg): 18%
Vd (in vivo; male, beagle, dog, plasma, iv): 6.34 L/kg
3H Human Predicted Cl. [2]: 0.05
EC50 [3]: 4.79 nM
EC50 ([4]; Human immunodeficiency virus 1, IIIB, MT4, high resolution assay, 40 data points, MT-4 cells, read-out: EC50): 6.8 nM
EC95 ([4]; calculated from Hill coefficient and EC50): 11.4 nM
Hill-coefficient ([4]; high resolution assay, Graph Pad Prism): 5.8
